Laboratory results taken from publication PMC10630888, “Nuclear ERK1/2 signaling potentiation enhances neuroprotection and cognition via Importinα1/KPNA2” (EMBO Molecular Medicine, 2023).
Where “and” joins values, the source holds several entries; their conditions need not be identical. Identical values can stand only once.

Assays:
Format in all cases: in vivo, mouse
cleaved caspase-3 [1] = experiment: Cleaved caspase-3 in striatum of zQ175 females after RB5; details: RB5 for 9 days
Experimental: Immunofluorescence was performed as described in Papale et al ([2016]). Briefly, 1 h after blocking in 5% normal goat serum, slices were incubated overnight at 4°C with the following primary antibodies: anti‐phospho (Ser10)‐acetylated (Lys14) histone H3 (1:1,000, Millipore), anti‐phospho‐S6 ribosomal protein (Ser235/236) (1:200, Cell Signaling Technology) anti‐phospho‐S6 ribosomal protein (Ser240/244) (1:200, Cell Signaling), cleaved caspase‐3 (1:200, Cell Signaling Technology), anti‐mutant Huntingtin (1:100, Developmental Studies Hybridoma Bank, University of Iowa, #MW8), and NeuN (1:1,000, Millipore). […]
In ex‐vivo and in‐vivo immunofluorescence experiments, the number of p‐S6 or p‐AcH3 immunoreactive neurons among NeuN‐positive neurons was counted in 2–3 consecutive striatal sections per mouse in four fields per section. Caspase 3‐positive cells were quantified among NeuN‐positive neurons in each slide and expressed as percentage (ratio between caspase‐3‐positive cells and total NeuN‐positive neurons) for each field acquired through the slide. The number of cells showing mutant Huntingtin inclusions were expressed as a percentage of mutant Huntingtin‐positive cells among DAPI‐positive cells. […]

[2] = system: tyrosine hydroxylase (TH) positive cells of the SNc; experiment: TH-positive cells in SNc, MPTP model
Experimental: Immunohistochemistry was performed as described in Papale et al ([2016]). […]
For in vivo immunohistochemistry experiments, images were acquired from the dorsal striatum using a Leica DM IRB microscope under a 20× objective. The number of p‐ERK, p‐MSK‐1, p‐ELK, p‐MEK‐1, p‐VG K+, c‐Fos, and DARPP‐32 positive cells was counted in 2–3 consecutive sections per mouse, bilaterally and averaged across the sections using the ImageJ software by a blind investigator to the condition. Estimation of nigral cell loss was assessed by quantifying the number of TH‐immunopositive neurons of the SNc in 360 μm‐spaced sections for each animal. […]
Immuno‐labeled sections were visualized under a Leica DM/RBE light microscope and an Olympus BX50 light microscope with Visiopharm Integrator System software (version 4.4.6.9). TH‐positive cells were counted at 200‐μm intervals. The total number of cells (C) for each animal was calculated using the following formula: C = ∑c × (∑A/∑a) × f, where c is the number of cells in each sampling frame, A is the inclusion area for each section, a is the area of the sampling frame for each animal, and f is the frequency of sectioning.

cleaved caspase-3 [3] = experiment: Cleaved caspase-3 in SN, MPTP model
Text: (§1) In ex‐vivo and in‐vivo immunofluorescence experiments, the number of p‐S6 or p‐AcH3 immunoreactive neurons among NeuN‐positive neurons was counted in 2–3 consecutive striatal sections per mouse in four fields per section. Caspase 3‐positive cells were quantified among NeuN‐positive neurons in each slide and expressed as percentage (ratio between caspase‐3‐positive cells and total NeuN‐positive neurons) for each field acquired through the slide. The number of cells showing mutant Huntingtin inclusions were expressed as a percentage of mutant Huntingtin‐positive cells among DAPI‐positive cells.
1‐methyl‐4‐phenyl‐1,2,3,6‐tetrahydropyridine‐hydrochloride (MPTP‐HCl, Sigma, Italy) was dissolved in saline and administered i.p. once daily at a dose of 20 mg/kg for 4 days. RB5 (20 mg/kg i.p.) was injected daily 30 min before MPTP.

cleaved caspase-3 [4] = experiment: Cleaved caspase-3 in striatum, 3-NP model with RB5; details: peptide 20 mg/kg i.p. twice a day plus 3-NP 50 mg/kg i.p. once a day, 7 days; individual mice
Text: as §1

pERK = pERK in striatum of HdhQ111/+ mice treated with RB5; details: for pERK in striatum (Fig 5 panel d): individual animals
Experimental: Immunohistochemistry was performed as described in Papale et al ([2016]). Briefly, 1 h after blocking in 5% normal goat serum and 0.1% Triton X‐100 solution, free‐floating sections were incubated overnight at 4°C with one of the following primary antibodies: anti‐phospho‐p44/42 MAP kinase (Thr202/Tyr204) (1:200, Cell Signaling Technology #9101), anti‐phospho–Elk‐1 (Ser383) (1:100, Cell Signaling #9181), anti‐phospho‐Kv4.2 (Thr607)‐R (1:100, Santa Cruz sc22254‐R), anti‐phospho‐MSK‐1 (1:100 Cell Signaling Technology #9595), anti‐phospho‐MEK1/2 (Ser218/222) (1:100, sc‐7995 Santa Cruz Biotechnology), c‐Fos (1:100, sc‐52 Santa Cruz Biotechnology), tyrosine Hydroxylase (monoclonal 1:1,000, Sigma Aldrich, Italy) and anti‐DARPP‐32 (H3) (1:100, Santa Cruz Biotechnology, #sc‐271111) overnight at 4°C. Sections were then incubated with biotinylated goat anti‐rabbit IgG (1:200, Vector Laboratories) or biotinylated goat anti‐mouse (1:200, Vector Laboratories) for 2 h. The classic avidin‐peroxidase complex (ABC, Vector, UK) protocol was applied, using 3,3′‐diaminobenzidine (DAB, Sigma) as a chromogen.
For in vivo immunohistochemistry experiments, images were acquired from the dorsal striatum using a Leica DM IRB microscope under a 20× objective. The number of p‐ERK, p‐MSK‐1, p‐ELK, p‐MEK‐1, p‐VG K+, c‐Fos, and DARPP‐32 positive cells was counted in 2–3 consecutive sections per mouse, bilaterally and averaged across the sections using the ImageJ software by a blind investigator to the condition. Estimation of nigral cell loss was assessed by quantifying the number of TH‐immunopositive neurons of the SNc in 360 μm‐spaced sections for each animal.

[5] = MPTP 20 mg/kg i.p. and RB5 20 mg/kg i.p. for 4 days

GRKKRRQRRRPPQGGGGGEPRRTEGVGPGVPGEVEMVKGQPFDV [RB5, six D-amino acids, acetylated N-terminus]
Preapoptotic marker caspase-3 in striatum (cleaved caspase-3 [1]): very significant reduction
Tyrosine hydroxylase (TH) loss in SNc [2, 5]: prevented tyrosine hydroxylase (TH) loss
TH-positive cells in SNc (Fig 5 panel g) ([2]; MPTP model, individual animals): 3818.38 and 2495.7 and 4195.82 and 2081.4 and 2629.68 and 4880.04 and 2139.82 and 2203.06 and 3349.83 and 3862.19 and 2316.4 and 3288.79 and 3386.28
Apoptotic cell death (cleaved caspase-3-positive cells) (cleaved caspase-3 [3]; [5]): counteracted apoptotic cell death
cleaved caspase-3 in SN (Fig 5 panel h) (cleaved caspase-3 [3]; MPTP model, individual animals): 15.9941 and 14.3542 and 22.1236 and 12.1639 and 12.097 and 11.2152 and 20.664 and 29.614 and 13.0618 and 19.582 and 19.4193 and 16.215 and 16.8899 and 24.4755
Cleaved caspase-3-positive cells among NeuN-positive neurons (cleaved caspase-3 [4]): significantly reduced neuronal death
ERK activity (pERK) in striatum (pERK; 10 month-old HdhQ111/+ mice, 20 mg/kg i.p. for 8 days): enhancing ERK activity
pERK in striatum (Fig 5 panel d) (pERK; HdhQ111/+ mice): 485.6 and 573.909 and 510.978 and 613 and 540.374 and 579.569 and 517.606 and 519.5 and 515.6
pERK in striatum (Fig 5 panel d) (pERK; WT mice): 416.7 and 470.92 and 371.49 and 542.1 and 453.63 and 361.4 and 405.17 and 381.6
